Test results taken from patent US6858414B2, “Multistage process for the preparation of highly pure deferoxamine mesylate salt” (Biogal Gyógyszergyár Rt., priority 1999, dated 2005).

Columns and labels:
[1] = association constant; cited from earlier work
[2] = cited from earlier work
[3] = association constant; cited from earlier work; remark: listed apart in the source
[4] = test system: secondary iron overload from multiple transfusions; conditions: cited from earlier work
[5] = stability as solid and in concentrated solution; type: physicochemical

CC(=O)N(O)CCCCCNC(=O)CCC(=O)N(O)CCCCCNC(=O)CCC(=O)N(O)CCCCCN [Deferoxamine B, N′-[5-[[4-[[5-(acetylhydroxyamino)pentyl]amino]-1,4-dioxobutyl]hydroxyamino]pentyl]-N-(5-aminopentyl)-N-hydroxy-butanediamide]
affinity for calcium (Ka) [1]: 10^2
oral absorption [2]: not well-absorbed orally
affinity for ferric iron (Ka) [3]: 10^31
accumulation of hepatic iron ([4]; long term therapy): slows accumulation of hepatic iron
progression of hepatic fibrosis ([4]; long term therapy): retards or eliminates progression of hepatic fibrosis
iron excretion ([4]; patients with secondary iron overload from multiple transfusions): promotes iron excretion
stability in solution ([5]; concentrated solution, on evaporation): prone to decomposition in concentrated solution
stability as solid ([5]; solid): reasonably stable solid
